Experimental data from patent US9795134B2, “Growth enhancement of plant” (RHODIA OPERATIONS, priority 2012, dated 2017).

Test system: Wheat seeds
Assay: Germination test on wheat seeds with pesticide (tebuconazol) treatment
Format: in vivo
Conditions: Guar 1/seed 0.2%, tebuconazol/seed 0.1%, 25 ml water each 2 days, 25° C.
From the text: Germination rate means the number of plant emerging out of soil in comparison with the number of all introduced in the soil. Height is the medium height of all plants in a set. Spraying an aqueous solution comprising 0.4 wt % of Guar 1 and […] additives on the surface of Wheat seeds, to obtain a weight ratio Guar 1/seed of 0.2% and tebuconazol/seed of 0.1%. 900 g of soil in each pot are used; this soil coming from […] province and belongs to […] soil. The germination test is carried out under watering conditions of 25 ml water each 2 days, with a temperature is 25° C.

SMILES: CC(C)(C)C(O)(CCc1ccc(Cl)cc1)Cn1cncn1 (centres unmarked) [tebucanozol, tebuconazol]
- Germination rate (36 days): 47%
- Height (36 days): 4.6 cm
